Test results from ChEMBL document CHEMBL3580533, “Antagonism/Agonism modulation to build novel antihypertensives selectively triggering i1-imidazoline receptor activation” (ACS Med Chem Lett, 2015).
Activity calls are given as the source filed them. The calls are words filed in the database; no cut-off is given here.

How the values were obtained:
Nischarin = Nischarin (Rattus norvegicus, UniProt Q4G017); assay: Displacement of [125I]-p-iodoclonidin from I1-imidazoline receptor in rat PC12 cell membranes; parameters: species or system PC-12
Chain of Nischarin (Q4G017 whole entry): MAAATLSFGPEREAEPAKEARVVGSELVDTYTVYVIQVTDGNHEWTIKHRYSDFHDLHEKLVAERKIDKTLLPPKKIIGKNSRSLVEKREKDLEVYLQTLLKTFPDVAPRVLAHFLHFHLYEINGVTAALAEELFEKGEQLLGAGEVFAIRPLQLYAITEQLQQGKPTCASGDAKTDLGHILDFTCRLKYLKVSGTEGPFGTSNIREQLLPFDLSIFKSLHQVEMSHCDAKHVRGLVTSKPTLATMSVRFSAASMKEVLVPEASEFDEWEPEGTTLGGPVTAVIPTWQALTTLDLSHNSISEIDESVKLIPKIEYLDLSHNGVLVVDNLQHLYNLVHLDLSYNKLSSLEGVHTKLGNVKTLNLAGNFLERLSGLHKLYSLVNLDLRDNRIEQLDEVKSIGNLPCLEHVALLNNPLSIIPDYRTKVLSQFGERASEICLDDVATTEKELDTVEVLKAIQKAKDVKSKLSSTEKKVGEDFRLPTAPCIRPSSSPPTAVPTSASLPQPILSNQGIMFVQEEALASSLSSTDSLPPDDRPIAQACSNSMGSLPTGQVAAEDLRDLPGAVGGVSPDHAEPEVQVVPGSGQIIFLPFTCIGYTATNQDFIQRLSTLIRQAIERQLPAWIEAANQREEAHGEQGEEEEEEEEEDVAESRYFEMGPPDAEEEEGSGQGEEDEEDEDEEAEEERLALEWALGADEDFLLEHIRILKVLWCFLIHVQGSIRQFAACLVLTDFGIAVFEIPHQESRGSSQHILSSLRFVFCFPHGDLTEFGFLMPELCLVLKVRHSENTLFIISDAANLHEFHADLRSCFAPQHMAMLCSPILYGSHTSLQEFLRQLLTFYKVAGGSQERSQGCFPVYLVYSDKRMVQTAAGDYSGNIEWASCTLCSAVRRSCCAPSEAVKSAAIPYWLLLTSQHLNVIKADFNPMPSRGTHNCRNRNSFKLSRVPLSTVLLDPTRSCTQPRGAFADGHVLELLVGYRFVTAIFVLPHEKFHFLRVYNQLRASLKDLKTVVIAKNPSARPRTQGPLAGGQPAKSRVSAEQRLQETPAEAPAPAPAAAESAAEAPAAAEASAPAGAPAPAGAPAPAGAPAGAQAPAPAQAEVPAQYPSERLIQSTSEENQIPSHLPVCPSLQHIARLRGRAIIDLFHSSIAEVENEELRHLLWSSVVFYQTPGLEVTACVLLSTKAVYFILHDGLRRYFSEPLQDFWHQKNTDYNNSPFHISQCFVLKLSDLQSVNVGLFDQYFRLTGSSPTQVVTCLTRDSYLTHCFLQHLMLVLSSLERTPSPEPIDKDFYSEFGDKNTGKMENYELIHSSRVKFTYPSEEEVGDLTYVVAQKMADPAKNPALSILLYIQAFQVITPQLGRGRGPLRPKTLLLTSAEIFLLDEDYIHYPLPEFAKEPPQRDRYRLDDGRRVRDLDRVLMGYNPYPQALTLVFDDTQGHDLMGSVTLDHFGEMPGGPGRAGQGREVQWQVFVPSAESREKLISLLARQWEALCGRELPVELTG

[1] = biological target: T1, Adrenergic receptor alpha-2 (Rattus norvegicus, UniProt P22086+P19328+P22909); assay: Displacement of [3H]-clonidine from alpha2 adrenoreceptor in rat cortex membranes; assay type: cell membranes
T1 sequence (P22086 whole entry): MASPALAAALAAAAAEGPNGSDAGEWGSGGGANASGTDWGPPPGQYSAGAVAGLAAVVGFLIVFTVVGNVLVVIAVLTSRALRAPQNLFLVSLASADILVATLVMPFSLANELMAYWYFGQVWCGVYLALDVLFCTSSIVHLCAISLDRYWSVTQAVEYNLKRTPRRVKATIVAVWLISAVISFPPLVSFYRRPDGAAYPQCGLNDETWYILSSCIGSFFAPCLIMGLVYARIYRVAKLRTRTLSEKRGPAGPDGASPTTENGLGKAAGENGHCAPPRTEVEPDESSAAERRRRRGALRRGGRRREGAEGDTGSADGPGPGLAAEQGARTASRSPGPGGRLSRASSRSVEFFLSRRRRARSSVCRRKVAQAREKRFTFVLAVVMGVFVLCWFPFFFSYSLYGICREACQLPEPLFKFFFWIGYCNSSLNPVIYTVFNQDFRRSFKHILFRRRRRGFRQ
T1 sequence (P19328 whole entry): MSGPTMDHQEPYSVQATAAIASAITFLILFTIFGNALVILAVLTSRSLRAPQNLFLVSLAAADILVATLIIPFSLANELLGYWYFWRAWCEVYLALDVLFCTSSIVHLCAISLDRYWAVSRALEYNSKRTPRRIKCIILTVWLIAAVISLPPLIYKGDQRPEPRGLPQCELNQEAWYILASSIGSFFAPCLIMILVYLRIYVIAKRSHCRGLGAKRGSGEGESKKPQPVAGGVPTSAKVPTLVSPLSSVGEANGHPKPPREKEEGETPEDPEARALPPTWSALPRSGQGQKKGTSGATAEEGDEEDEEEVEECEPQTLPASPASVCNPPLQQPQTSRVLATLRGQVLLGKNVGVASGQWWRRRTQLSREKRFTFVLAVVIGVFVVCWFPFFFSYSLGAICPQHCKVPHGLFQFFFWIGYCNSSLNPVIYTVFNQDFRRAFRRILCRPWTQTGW
T1 sequence (P22909 whole entry): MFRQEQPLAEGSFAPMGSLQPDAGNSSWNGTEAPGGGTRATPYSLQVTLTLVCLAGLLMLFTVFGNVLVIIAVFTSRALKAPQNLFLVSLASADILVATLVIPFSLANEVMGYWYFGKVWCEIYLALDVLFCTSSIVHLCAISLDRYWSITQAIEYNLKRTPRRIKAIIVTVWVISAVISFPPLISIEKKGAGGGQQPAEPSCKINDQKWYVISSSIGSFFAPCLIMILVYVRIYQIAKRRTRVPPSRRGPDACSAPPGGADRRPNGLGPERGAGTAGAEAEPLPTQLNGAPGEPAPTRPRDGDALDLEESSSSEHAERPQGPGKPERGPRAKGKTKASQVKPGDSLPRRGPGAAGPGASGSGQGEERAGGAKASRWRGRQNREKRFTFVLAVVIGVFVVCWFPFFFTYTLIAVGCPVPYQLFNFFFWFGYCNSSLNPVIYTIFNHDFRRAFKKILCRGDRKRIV

Rattus norvegicus [2] = assay: Reduction in mean arterial blood pressure in spontaneously hypertensive rat at 30 mg/kg, ip administered as single dose and measured 30 mins post dose by tail-cuff plethysmography; assay type: functional; conditions: 0.5 h
Rattus norvegicus [3] = assay: Reduction in mean arterial blood pressure in spontaneously hypertensive rat at 30 mg/kg, ip administered as single dose and measured 60 mins post dose by tail-cuff plethysmography; assay type: functional; conditions: 1 h
Rattus norvegicus [4] = assay: Reduction in mean arterial blood pressure in spontaneously hypertensive rat at 30 mg/kg, ip administered as single dose and measured 120 mins post dose by tail-cuff plethysmography; assay type: functional; conditions: 2 h
Rattus norvegicus [5] = assay: Reduction in heart rate in spontaneously hypertensive rat at 30 mg/kg, ip administered as single dose and measured 120 mins post dose by tail-cuff plethysmography; assay type: functional; conditions: 2 h
Rattus norvegicus [6] = assay: Reduction in heart rate in spontaneously hypertensive rat at 30 mg/kg, ip administered as single dose and measured 60 mins post dose by tail-cuff plethysmography; assay type: functional; conditions: 1 h
Rattus norvegicus [7] = assay: Reduction in heart rate in spontaneously hypertensive rat at 30 mg/kg, ip administered as single dose and measured 30 mins post dose by tail-cuff plethysmography; assay type: functional; conditions: 0.5 h
Rattus norvegicus [8] = assay: Reduction in mean arterial blood pressure in spontaneously hypertensive rat at 30 mg/kg, ip administered as single dose and measured 30 to 120 mins post dose pre-treated with 30 mg/kg, ip 2-(1-phenylpropan-2-yl)-4,5-dihydro-1H-imidazole by tail-cuff plethysmography; assay type: functional, organism-based
PC-12 = assay: Selectivity ratio, […]-imidazoline receptor in rat PC12 cell membranes to […] adrenoreceptor in rat cortex membranes; assay type: cell-based

Row | SMILES | Ki (Nischarin) [nM] | pKi [1] | inhibition in vivo at 30 mg/kg (Rattus norvegicus [2]) [%] | inhibition in vivo at 30 mg/kg (Rattus norvegicus [3]) [%] | inhibition in vivo at 30 mg/kg (Rattus norvegicus [4]) [%] | inhibition in vivo at 30 mg/kg (Rattus norvegicus [5]) [%] | inhibition in vivo at 30 mg/kg (Rattus norvegicus [6]) [%] | inhibition in vivo at 30 mg/kg (Rattus norvegicus [7]) [%] | inhibition (Rattus norvegicus [8]) | Ratio (PC-12)
1 | CC(Oc1ccccc1-c1ccccc1)C1=NCCN1 (stereo not drawn) [BIPHENYLINE] | 126 | – | – | – | – | – | – | – | – | –
2 | CC(Cc1ccccc1-c1cccc(O)c1)C1=NCCN1 (stereo not drawn) | > 1000 | < 6 | – | – | – | – | – | – | – | –
3 | C[C@@H](Cc1ccccc1-c1ccccc1)C1=NCCN1 | 97.7 | – | – | – | – | – | – | – | – | –
4 | CC(Cc1ccccc1-c1cccnc1)C1=NCCN1 (stereo not drawn) | > 1000 | < 6 | – | – | – | – | – | – | – | –
5 | C[C@H](Cc1ccccc1-c1ccccc1)C1=NCCN1 | 2240 | – | – | – | – | – | – | – | – | –
6 | CC(Cc1ccccc1-c1ccsc1)C1=NCCN1 (stereo not drawn) | 63.1 | < 6 | 24.8 | 35.1 | 10.8 | 11.2 | 19.7 | 26.4 | – | –
7 | Cc1ccccc1CC(C)C1=NCCN1 (stereo not drawn) | 23.4 | < 6 | 32.4 | 29.7 | 53.1 | 7.66 | 13.6 | 11.7 | inactive | –
8 | CC(Cc1ccccc1Cl)C1=NCCN1 (stereo not drawn) | 195 | < 6 | 37.8 | 31.4 | 32.4 | 8.02 | 11.6 | 11.1 | – | –
9 | CC(Oc1ccccc1)C1=NCCN1 (stereo not drawn) | 309 | – | – | – | – | – | – | – | – | –
10 | Cc1ccccc1C[C@@H](C)C1=NCCN1 | 1050 | < 6 | 8.67 | 12.7 | 3.01 | 0 | 4.18 | 9.17 | – | –
11 | Cc1ccccc1C[C@H](C)C1=NCCN1 | 13.2 | < 6 | 34.4 | 26 | 7.85 | 5.89 | 11.1 | 12 | – | –
12 | CC(Cc1ccccc1-c1ccccc1)C1=NCCN1 (stereo not drawn) | 155 | 4.1 | 27.6 | 25.4 | 34.9 | 11.9 | 13.8 | 14.2 | – | 513
